# Measurements taken from article PMC7669869, “AdipoR1/AdipoR2 dual agonist recovers nonalcoholic steatohepatitis and related fibrosis via endoplasmic reticulum-mitochondria axis” (Nature Communications, 2020).
# Non-standard residues stand in square brackets, D forms with d. Residues, ends and D or L forms follow the SMILES beside them. Nva = CCC[C@H](N)C(=O)O
# Legend:
# [1] = tested on: AdipoR1 and AdipoR2 on HepG2 and LX2 cells; test: Cell confocal imaging, receptor binding of FITC labeled peptide (with AdipoR siRNA); parameters: species or system human; details: 37 °C, 2 or 4 h, AdipoR1/AdipoR2 siRNA as control, in words
# Experimental: For in vitro receptor binding assay, 4E4 HepG2 cells or 2E4 LX2 cells were seeded on 35 mm glass bottom dish with 150 μL complete medium. Then cells were incubated with FITC labeled peptide for 4 h. The nuclei were stained with Hoechst 33342 (ThermoFisher, Scientific, USA). After washing with PBS, cells were visualized in a laser confocal microscope (Olympus FV3000, Japan). Cells with suppressed AdipoR1 and AdipoR2 expression with each specific siRNA were used as negative control.
# (§1) AdipoR1 and AdipoR2 siRNA as well as mock siRNA were chemically synthesized (GenePharma, China) and transfected into 60–70% confluent HepG2 and LX2 cells using Lipofectamine 3000 (ThermoFisher Scientific, USA). Dilution of siRNA and Lipofectamine 3000 reagents as well as the transfection of cells were performed following the manufacturer’s protocol. For HepG2 cell model, 5E5 cells were plated in 6-well plates and transfected with 5 μL of 20 μM stock siRNA. At 48 h following transfection, the cells were processed for 0.25 mM PA and/or 200 μM JT003 treated for another 24 h. BSA was used as the negative control. For LX2 cell model, 2E5 cells were plated in 6-well plates and transfected with 5 μL of 20 μM stock siRNA. At 48 h following transfection, the cells were processed for JT003 or PBS treated for another 48 h. Next, cells were harvested for either western blot or qPCR assay.
# AdipoR2 = biological target: T1, AdipoR2 (Homo sapiens, UniProt Q86V24); test: Competition binding assay vs globular adiponectin (western blot), AdipoR2 overexpression cells; details: JT003 4 h, then 50 μg ml−1 gAd155–161 4 h, in words
# T1 construct: His; host or cells: HEK293
# T1 sequence (Q86V24 1-386): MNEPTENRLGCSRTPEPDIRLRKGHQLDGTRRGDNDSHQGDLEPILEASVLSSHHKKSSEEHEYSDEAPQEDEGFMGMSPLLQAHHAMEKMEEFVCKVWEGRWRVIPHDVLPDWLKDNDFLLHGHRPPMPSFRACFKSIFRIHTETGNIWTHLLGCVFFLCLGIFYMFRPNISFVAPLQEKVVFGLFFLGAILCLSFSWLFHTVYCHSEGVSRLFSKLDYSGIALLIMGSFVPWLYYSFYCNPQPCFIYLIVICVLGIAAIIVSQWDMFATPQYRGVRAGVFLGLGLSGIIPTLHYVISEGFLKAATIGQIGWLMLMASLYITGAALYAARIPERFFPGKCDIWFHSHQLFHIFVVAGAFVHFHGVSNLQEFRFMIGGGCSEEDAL
# Experimental: Different concentration of JT003 were incubated with AdipoR1 or AdipoR2 overexpression HEK293 cell line for 4 h. After that, 50 μg ml^−1 gAd155–161 were added for another 4 h incubation. The binding of gAd155–161 to the cells were measured via western blot assay.
# [2] = tested on: liver gene expression of HFD induced NASH mice; test: HFD mice: liver mRNA, quantitative RT-PCR; assay type: in vivo, mouse; details: for CD14 liver mRNA, relative expression, Supplementary Figure 11b / F4/80 liver mRNA, relative expression, Supplementary Figure 11b / IL-1b liver mRNA, relative expression, Supplementary Figure 11b / IL-6 liver mRNA, relative expression, Supplementary Figure 11b / LY6G liver mRNA, relative expression, Supplementary Figure 11b / iNOS liver mRNA, relative expression, Supplementary Figure 11b: HFD + JT003 mice
# Experimental: The NASH model was conducted with feeding a HFD for 16 weeks combine with a MCD diet (Methionine/Choline Deficient Diet, Medicience, China) in the last 4 weeks. Mice administered a MCS diet (Methionine/Choline Sufficient Diet, Medicience, China) serves as control group. NAFLD or NASH mice treated with JT003 for 4 weeks were used to evaluate the pharmacological effects (n = 6; 500 μg kg^−1; daily intraperitoneal injection). Food and water were provided ad libitum. The body weight of mice was examined every 3 days. The diet was renewed every 7 days. JT003 was diluted in PBS.
# (§2) Liver total RNA was extracted by using Trizol reagent following the manufacture’s instruction (TransGen Biotech, China). The concentration of RNA was measured by Nanodrop 2000 (ThermoFisher Scientific, USA). cDNA was transcribed from 10ug total RNA with First Strand cDNA synthesis Super Mix (TransGen Biotech, China). The cDNA was diluted 1/50 and 1.0 uL were used as a template for qPCR. qPCR was performed with SYBR Green qPCR Super Mix (TransGen Biotech, China) in the Light Cycler 480 Real-Time PCR System (Roche, Swiss). Reference gene β-actin was used for data normalization. mRNA expression was analyzed with specific primers listed in Supplementary Table 2.
# [3] = tested on: AdipoR1 and AdipoR2 in LX2 cells; test: RNA interference (AdipoR1/AdipoR2 siRNA) in LX2: PPARα, PPARγ mRNA and protein; assay type: cell-based, human; details: JT003 48 h, in words
# Experimental: as §1, with “For LX2 cell model, 2E5 cells were plated in 6-well plates and transfected with 5 μL of 20 μM stock siRNA. At 48 h following transfection, the cells were processed for JT003 or PBS treated for another 48 h. Next, cells were harvested for either western blot or qPCR assay.” left out
# as §2, with “The cDNA was diluted 1/50 and 1.0 uL were used as a template for qPCR. qPCR was performed with SYBR Green qPCR Super Mix (TransGen Biotech, China) in the Light Cycler 480 Real-Time PCR System (Roche, Swiss).” left out
# Total protein was isolated from cells or liver samples using RIPA lysis buffer (50.0 mM Tris-HCl (pH = 8.0), 150.0 mM NaCl, 0.02% NaN3, 0.1% SDS, 1% NP-40, 0.5% deoxysodium cholate, 1 mM EDTA, […]). The protein concentration was quantified with BCA kit (Pierce, ThermoFisher Scientific, USA). […]
# [4] = HFD mice, liver, JT003 500 μg kg−1, in words
smiles,measurement,setting,value
CCC[C@H](NC(=O)[C@@H]1CCCN1)C(=O)N[C@@H](CC(C)C)C(=O)N[C@@H](Cc1ccc(O)cc1)C(=O)N[C@@H](Cc1ccc(O)cc1)C(=O)N[C@@H](Cc1ccccc1)C(=O)N[C@@H](C)C(N)=O [JT003] (H-P[Nva]LYYFA-NH2),"binding to AdipoRs on the cell membrane (confocal, FITC)",[1],could specifically bind to AdipoR1 and/or AdipoR2 on the cell membrane
same,"competitive binding to globular adiponectin, AdipoR2 overexpression cells",AdipoR2,more JT003 cause less globular adiponectin binding
same,"CD14 liver mRNA, relative expression, Supplementary Figure 11b",[2]; replicate 1,0.836
same,"F4/80 liver mRNA, relative expression, Supplementary Figure 11b",[2]; replicate 1,1.324
same,"IL-1b liver mRNA, relative expression, Supplementary Figure 11b",[2]; replicate 1,0.2358
same,"IL-6 liver mRNA, relative expression, Supplementary Figure 11b",[2]; replicate 1,0.3838
same,"LY6G liver mRNA, relative expression, Supplementary Figure 11b",[2]; replicate 1,1.539
same,"iNOS liver mRNA, relative expression, Supplementary Figure 11b",[2]; replicate 1,0.7587
same,"CD14 liver mRNA, relative expression, Supplementary Figure 11b",[2]; replicate 2,0.7038
same,"F4/80 liver mRNA, relative expression, Supplementary Figure 11b",[2]; replicate 2,1.41
same,"IL-1b liver mRNA, relative expression, Supplementary Figure 11b",[2]; replicate 2,0.3558
same,"IL-6 liver mRNA, relative expression, Supplementary Figure 11b",[2]; replicate 2,0.9338
same,"LY6G liver mRNA, relative expression, Supplementary Figure 11b",[2]; replicate 2,2.089
same,"iNOS liver mRNA, relative expression, Supplementary Figure 11b",[2]; replicate 2,1.076
same,"CD14 liver mRNA, relative expression, Supplementary Figure 11b",[2]; replicate 3,0.548
same,"F4/80 liver mRNA, relative expression, Supplementary Figure 11b",[2]; replicate 3,0.6014
same,"IL-1b liver mRNA, relative expression, Supplementary Figure 11b",[2]; replicate 3,0.1532
same,"IL-6 liver mRNA, relative expression, Supplementary Figure 11b",[2]; replicate 3,0.2832
same,"LY6G liver mRNA, relative expression, Supplementary Figure 11b",[2]; replicate 3,0.8264
same,"iNOS liver mRNA, relative expression, Supplementary Figure 11b",[2]; replicate 3,1.076
same,"CD14 liver mRNA, relative expression, Supplementary Figure 11b",[2]; replicate 4,0.7504
same,"F4/80 liver mRNA, relative expression, Supplementary Figure 11b",[2]; replicate 4,1.0118
same,"IL-1b liver mRNA, relative expression, Supplementary Figure 11b",[2]; replicate 4,0.1494
same,"IL-6 liver mRNA, relative expression, Supplementary Figure 11b",[2]; replicate 4,0.2961
same,"LY6G liver mRNA, relative expression, Supplementary Figure 11b",[2]; replicate 4,2.4
same,"iNOS liver mRNA, relative expression, Supplementary Figure 11b",[2]; replicate 4,0.5084
same,"CD14 liver mRNA, relative expression, Supplementary Figure 11b",[2]; replicate 5,0.8521
same,"F4/80 liver mRNA, relative expression, Supplementary Figure 11b",[2]; replicate 5,0.7678
same,"IL-1b liver mRNA, relative expression, Supplementary Figure 11b",[2]; replicate 5,0.1331
same,"IL-6 liver mRNA, relative expression, Supplementary Figure 11b",[2]; replicate 5,0.3878
same,"iNOS liver mRNA, relative expression, Supplementary Figure 11b",[2]; replicate 5,1.435
same,"F4/80 liver mRNA, relative expression, Supplementary Figure 11b",[2]; replicate 6,1.044
same,"IL-6 liver mRNA, relative expression, Supplementary Figure 11b",[2]; replicate 6,0.3111
same,G6Pase expression level in liver,"[2]; HFD mice, JT003 500 μg kg−1, compared to HFD mice, in words",significantly elevated
same,expression of antioxidant enzymes (SOD and CAT) and mitochondrial biogenesis regulators (PGC1α and PGC1β),[2]; [4],accelerated prominently
same,"expression of genes related to fatty acid synthesis (PPARγ, ACC1, FASN, DGAT1, FAS, SCD1, ASCL3), fatty acid uptake (CD36) and cholesterol synthesis (HMGCR, SREBP-1C)",[2]; [4],significantly inhibited
same,"expression of genes responsible for fatty acid β-oxidation (LCAD, MCAD, UCP2, CPT1α)",[2]; [4],much higher
same,"overexpression of genes related to inflammation (LY6G, F4/80, IL-6, IL-1β, iNOS, CD14) and ER stress (XBP1, ATF4, CHOP, BID and GRP78)",[2]; [4],suppressed significantly
same,"upregulation of genes related to mitochondrial dysfunction (CYP2E1, BAX, NQO1, SRXN1 and GPX1)",[2]; [4],suppressed remarkably
same,effect of AdipoR1 and AdipoR2 siRNA on PPARα level induced by JT003,[3],reduced the increase of the PPARα level induced by JT003
